In patent US5705508A, “Anti-tumor compounds, pharmaceutical compositions, methods for preparation thereof and for treatment” (priority 1995, dated 1998):
“Also recorded” adds a separate entry of the source. Like-named read-outs stand apart in the source and are kept apart here.

Legend:
A121 (ovarian cancer) = test: Anticancer activity, inhibition of cell proliferation, A121 (ovarian); type: cell-based; settings: Homo sapiens
Protocol: (§1) Compounds SB-T-101131, SB-T-101133, SB-T-101134, SB-T-10114, SB-T-101141, SB-T-101142, SB-T-101143, SB-T-101144, SB-T-101146, SB-T-101151 and SB-T-101161 were prepared according to the protocols described in Examples 59 and 60 above. These compounds were evaluated for cancer activity against human cancer cell lines of A121 (ovarian cancer), A549 (non-small cell lung cancer), HT-29 (colon cancer), MCF7 (breast cancer), and MCF7-R (adriamycin resistant breast cancer). Table 1 below illustrates the activity of these compounds as IC50 values in a nM concentration.
(§2) […] ACTIVITY OF NEW TAXANES (IC50 nM).
(§3) ^a IC50 represents the concentration that inhibits 50% of cell
(§4) proliferation. ^b MCF7R = mammary carcinoma cells 180 fold resistant
(§5) The cytotoxicities of the new taxanes shown in FIG. 1 hereto and listed in Table 1 were evaluated in vitro against human cancer cell lines according to methods more particularly described in Ojima, I., et al., "Structure--Activity Relationships of New Taxoids Derived from 14β-Hydroxy-10-Deacetyl/Baccatin III," Journal of Medicinal Chemistry, 37, 1408-1410 (1994) and Ojima, I., et al., "Synthesis and Biological Activity of 14-hydroxydocetaxel," Bioorganic and Medicinal Chemistry Letters, 4, 1571-1576 (1994) the contents of which are incorporated herein by reference as if set forth in full.

[1] = tested on: A549 (non-small cell lung cancer); test: Anticancer activity, inhibition of cell proliferation, A549 (NSCLC); type: cell-based; settings: Homo sapiens
Protocol: as §1, §2, §3, §4, §5

HT-29 (colon cancer) = test: Anticancer activity, inhibition of cell proliferation, HT-29 (colon); type: cell-based; settings: Homo sapiens
Protocol: as §1, §2, §3, §4, §5

MCF7 (breast cancer) = test: Anticancer activity, inhibition of cell proliferation, MCF7 (breast); type: cell-based; settings: Homo sapiens
Protocol: as §1, §2, §3, §4, §5

[2] = tested on: MCF7-R (adriamycin resistant breast cancer); test: Anticancer activity, inhibition of cell proliferation, MCF7-R (adriamycin resistant breast); type: cell-based; settings: Homo sapiens, MCF7R, read-out: IC50, MCF7-R
Protocol: as §1, with “cancer).” for “cancer). Table 1 below illustrates the activity of these compounds as IC50 values in a nM concentration.”
as §3, §4, §5

[3] = aqueous media, cited from earlier work
[4] = clinical trials; cited from earlier work
different cancers = settings: background statement; cited from earlier work
[5] = compared with Taxol; listed as Taxotere; cited from earlier work
[6] = concentration that inhibits 50% of cell proliferation, A121 (ovarian), read-out: IC50, A121 (ovarian)
[7] = concentration that inhibits 50% of cell proliferation, A549 (NSCLC), read-out: IC50, A549 (NSCLC)
[8] = concentration that inhibits 50% of cell proliferation, HT-29 (colon), read-out: IC50, HT-29 (colon)
[9] = concentration that inhibits 50% of cell proliferation, MCF7 (breast), read-out: IC50, MCF7 (breast)
[10] = concentration that inhibits 50% of cell proliferation, mammary carcinoma cells 180 fold resistant to adriamycin

SMILES	IC50 (A121 (ovarian cancer); [6]) [nM]	IC50 [1, 7] [nM]	IC50 (HT-29 (colon cancer); [8]) [nM]	IC50 (MCF7 (breast cancer); [9]) [nM]	IC50 [2, 10] [nM]	also measured
CC(=O)O[C@H]1C(=O)[C@@]2(C)[C@H]([C@H](OC(=O)c3ccccc3)[C@]3(O)C[C@H](OC(=O)[C@H](O)[C@@H](NC(=O)c4ccccc4)c4ccccc4)C(C)=C1C3(C)C)[C@]1(OC(C)=O)CO[C@@H]1C[C@@H]2O [Paclitaxel, reference compound]	6.1	3.6	3.2	1.7	300	water solubility ([3]; listed as Taxol): limited solubility in aqueous media; also recorded: poor water solubility; side effects [4]: nerve damage, muscle pain or disturbances in heart rhythm; cytotoxicity and antitumor activity (different cancers): high cytotoxicity and strong antitumor activity
CC(=O)OC12COC1CC(O)C1(C)C(=O)C(OC(=O)C3CC3)C3=C(C)C(OC(=O)C(O)C(CC(C)C)NC(=O)OC(C)(C)C)C4OC(=O)OC4(C(OC(=O)c4ccccc4)C21)C3(C)C (stereo not drawn) [SB-T-101133]	1.1	1.2	3.3	0.7	22	
CC(=O)OC1C(=O)C2(C)C(O)CC3OCC3(OC(C)=O)C2C(OC(=O)c2ccccc2)C23OC(=O)OC2C(OC(=O)C(O)C(NC(=O)OC(C)(C)C)c2ccco2)C(C)=C1C3(C)C (stereo not drawn) [SB-T-101161]	0.4	0.5	0.6	0.5	58	
CC(=O)OC12COC1CC(O)C1(C)C(=O)C(OC(=O)N(C)C)C3=C(C)C(OC(=O)C(O)C(C=C(C)C)NC(=O)OC(C)(C)C)C4OC(=O)OC4(C(OC(=O)c4ccccc4)C21)C3(C)C (stereo not drawn) [SB-T-101144]	0.7	0.6	1.2	0.2	22	
CC(=O)OC12COC1CC(O)C1(C)C(=O)C(O)C3=C(C)C(OC(=O)C(O)C(C=C(C)C)NC(=O)OC(C)(C)C)C4OC(=O)OC4(C(OC(=O)c4ccccc4)C21)C3(C)C (stereo not drawn) [SB-T-10114]	1.7	0.2	0.5	0.5	54	
COC(=O)OC1C(=O)C2(C)C(O)CC3OCC3(OC(C)=O)C2C(OC(=O)c2ccccc2)C23OC(=O)OC2C(OC(=O)C(O)C(C=C(C)C)NC(=O)OC(C)(C)C)C(C)=C1C3(C)C (stereo not drawn) [SB-T-101146]	0.6	0.5	0.7	0.3	38	
CC(=O)OC12COC1CC(O)C1(C)C(=O)C(OC(=O)N(C)C)C3=C(C)C(OC(=O)C(O)C(CC(C)C)NC(=O)OC(C)(C)C)C4OC(=O)OC4(C(OC(=O)c4ccccc4)C21)C3(C)C (stereo not drawn) [SB-T-101134]						IC50 (A121 (ovarian cancer); A121, read-out: IC50, A121 (ovarian)): 0.6 nM; IC50 ([1]; A549, read-out: IC50, A549 (NSCLC)): 0.6 nM; IC50 (HT-29 (colon cancer); HT-29, read-out: IC50, HT-29 (colon)): 1.3 nM; IC50 (MCF7 (breast cancer); MCF7, read-out: IC50, MCF7 (breast)): 0.6 nM; IC50 [2]: 22 nM
CCC(=O)OC1C(=O)C2(C)C(O)CC3OCC3(OC(C)=O)C2C(OC(=O)c2ccccc2)C23OC(=O)OC2C(OC(=O)C(O)C(C=C(C)C)NC(=O)OC(C)(C)C)C(C)=C1C3(C)C (stereo not drawn) [SB-T-101142]	0.7	0.5	0.6	0.1	21	
CC(=O)O[C@@]12CO[C@@H]1C[C@H](O)[C@@]1(C)C(=O)[C@H](O)C3=C(C)[C@@H](OC(=O)[C@H](O)[C@@H](NC(=O)OC(C)(C)C)c4ccccc4)C[C@@](O)([C@@H](OC(=O)c4ccccc4)[C@H]21)C3(C)C [Docetaxel]	1.2	1	1.2	1		water solubility [3]: somewhat improved water solubility; side effects [4]: mouth sores and a plunge in white blood cell count; cytotoxicity and antitumor activity (different cancers): antitumor activity superior to Taxol; bioavailability / pharmacological properties [5]: better pharmacological properties than Taxol; also recorded: better bioavailability
CC(=O)OC1C(=O)C2(C)C(O)CC3OCC3(OC(C)=O)C2C(OC(=O)c2ccccc2)C23OC(=O)OC2C(OC(=O)C(O)C(C=C(C)C)NC(=O)OC(C)(C)C)C(C)=C1C3(C)C (stereo not drawn) [SB-T-101141]	1.5	1.4	2.4	3.3	36	
CC(=O)OC12COC1CC(O)C1(C)C(=O)C(OC(=O)C3CC3)C3=C(C)C(OC(=O)C(O)C(C=C(C)C)NC(=O)OC(C)(C)C)C4OC(=O)OC4(C(OC(=O)c4ccccc4)C21)C3(C)C (stereo not drawn) [SB-T-101143]	0.5	0.5	1	0.2	24	
CC(=O)O[C@@]12CO[C@@H]1C[C@H](O)[C@@]1(C)C(=O)[C@H](O)C3=C(C)[C@@H](O)[C@H](O)[C@@](O)([C@@H](OC(=O)c4ccccc4)[C@H]21)C3(C)C [14-OH-DAB, 14-Hydroxy-10-deacetylbaccatin III]						water solubility [3]: much higher water solubility than the usual 10-deacetylbaccatin III
CC(=O)O[C@H]1C(=O)[C@@]2(C)[C@H]([C@H](OC(=O)c3ccccc3)[C@]34OC(=O)O[C@H]3[C@H](OC(=O)[C@H](O)[C@H](CC(C)C)NC(=O)OC(C)(C)C)C(C)=C1C4(C)C)[C@]1(OC(C)=O)CO[C@@H]1C[C@@H]2O [SB-T-101131]	1.2	0.7	1.5	1.1	36	
CC=CC(NC(=O)OC(C)(C)C)C(O)C(=O)OC1C(C)=C2C(OC(C)=O)C(=O)C3(C)C(O)CC4OCC4(OC(C)=O)C3C(OC(=O)c3ccccc3)C3(OC(=O)OC13)C2(C)C (stereo not drawn) [SB-T-101151]	2.4	0.4	3	1.6	49	
